Our source for the logP values is the SangsterLogP compilation.

The series is described as follows: method code SF-AS, from DOI: 10.1016/0045-6535(94)00381-4.
As a reminder, the logP is the decadic logarithm of the partition coefficient of the neutral form, usually between octanol and water. With `COC(=O)C1(S(=O)(=O)c2ccc(Cl)cc2)CC1`, the logP was determined as 2.03.
In the case of `COC(=O)C1(S(=O)(=O)c2ccc(Cl)cc2)CCC1` it was 2.28.
`CC(C)OC(=O)C1(S(=O)(=O)c2ccc(Cl)cc2)CCCCC1`: the logP stood at 3.49.
In the case of `COC(=O)C1(S(=O)(=O)c2ccc([N+](=O)[O-])cc2)CC1` it was 1.33; in that of `CCOC(=O)C1(S(=O)(=O)c2ccc(C)cc2)CCC1`, 2.31; in that of `CC(C)OC(=O)C1(S(=O)(=O)c2ccc([N+](=O)[O-])cc2)CCCCC1`, 2.84.
Under `Cc1ccc(S(=O)(=O)C2(C(=O)OC(C)C)CCCCC2)cc1` stands 3.21; under `CC(C)OC(=O)C1(S(=O)(=O)c2ccc([N+](=O)[O-])cc2)CCCCCC1`, 3.41; under `CC(C)OC(=O)C1(S(=O)(=O)c2ccc([N+](=O)[O-])cc2)CC1`, 2.05.
For the compound `COC(=O)CS(=O)(=O)c1ccc([N+](=O)[O-])cc1Cl`, the logP was 1.45.
In the case of `COC(=O)C1(S(=O)(=O)c2ccccc2)CCCC1` it was 1.98.
Under `COC(=O)C1(S(=O)(=O)c2ccc(Br)cc2)CC1` stands 2.32; under `COC(=O)C1(S(=O)(=O)c2ccc(Br)cc2)CCC1`, 2.45.
In the case of `COC(=O)C1(S(=O)(=O)c2ccccc2)CCC1` it was 1.63; in that of `COC(=O)C1(S(=O)(=O)c2ccc(Br)cc2)CCCC1`, 2.73; in that of `CC(C)OC(=O)C1(S(=O)(=O)c2ccc([N+](=O)[O-])cc2)CCC1`, 2.36.
In turn, `COC(=O)C1(S(=O)(=O)c2ccc(C)cc2)CC1` came in with a logP of 1.77.
Under `CC(C)OC(=O)C1(S(=O)(=O)c2ccc(Cl)cc2)CCCCCC1` stands 3.83; under `CC(C)(C)OC(=O)C1(S(=O)(=O)c2ccc(Cl)cc2)CC1`, 2.68.
Take `COC(=O)C1(S(=O)(=O)c2ccccc2)CCCCC1`: the logP came out at 2.3.
In the case of `Cc1ccc(S(=O)(=O)C2(C(=O)OC(C)C)CCCC2)cc1`, the logP came to 2.88.
In the case of `CC(C)OC(=O)C1(S(=O)(=O)c2ccc(Cl)cc2)CCCC1` it was 3.16; in that of `CCOC(=O)C1(S(=O)(=O)c2ccc(C)cc2)CC1`, 2.23.
Under `COC(=O)C1(S(=O)(=O)c2ccc(C)cc2)CCCCC1` stands 2.54.
Compound `COC(=O)CS(=O)(=O)c1ccc(Br)cc1` showed a logP of 1.52.
Under `COC(=O)C1(S(=O)(=O)c2ccccc2)CC1` stands 1.43; under `Cc1ccc(S(=O)(=O)C2(C(=O)OC(C)C)CC2)cc1`, 2.52.
`COC(=O)C1(S(=O)(=O)c2ccc(Br)cc2)CCCCC1` came in with a logP of 2.94.
The compound `COC(=O)CS(=O)(=O)c1ccc(Cl)cc1` registered a logP of 1.31.
In the case of `CC(C)OC(=O)CS(=O)(=O)c1ccc(Cl)cc1` it was 2.04; in that of `CC(C)OC(=O)C1(S(=O)(=O)c2ccc(Cl)cc2)CC1`, 2.64; in that of `COC(=O)CS(=O)(=O)c1ccccc1`, 0.93.
